According to patent US20250099433A1, “COMPOSITION AND METHOD FOR TREATMENT OF GRAM NEGATIVE BACTERIAL INFECTION” (The Research Foundation for the State University of New York, priority 2021, published 2025):
Values after ≈ are worked out from the molar mass of the structure shown. Values joined by “and” are separate entries in the source; they are usually repeats but may differ in a detail not shown here. Equal entries are not always repeated. Where two headings read alike, the source gives them in different places.

Tests used:
P. aeruginosa PAO1 [1] = assay: MIC by microbroth dilution, P. aeruginosa PAO1; details: for MIC: Pseudomonas aeruginosa, PAO1, read-out: MIC (μM) (PAO1)
[2] = system: efflux-pump mutant strain (ΔMexABCDXY) (paEP); assay: MIC by microbroth dilution, efflux-pump mutant P. aeruginosa; details: for MIC: Pseudomonas aeruginosa, read-out: MIC (μM) (paEP)
From the text: Bacterial Strains. […] The efflux-pump deficient P. aeruginosa strain (ΔMexABCDXY), N150, was derived from PAO1.
Minimum Inhibitory Concentration (MIC) Measurements.

paLpxC = paLpxC (Pseudomonas aeruginosa (strain ATCC 15692 / DSM 22644 / CIP 104116 / JCM 14847 / LMG 12228 / 1C / PRS 101 / PAO1), UniProt P47205); assay: biochemical; type: binding; details: for tR (min) Fluorescence assay: tR = 1/koff; for kon: read-out: Kon (μM^−1s^−1); for residence time fold longer than 1: fluorescence assay
Chain of paLpxC (P47205 1-299): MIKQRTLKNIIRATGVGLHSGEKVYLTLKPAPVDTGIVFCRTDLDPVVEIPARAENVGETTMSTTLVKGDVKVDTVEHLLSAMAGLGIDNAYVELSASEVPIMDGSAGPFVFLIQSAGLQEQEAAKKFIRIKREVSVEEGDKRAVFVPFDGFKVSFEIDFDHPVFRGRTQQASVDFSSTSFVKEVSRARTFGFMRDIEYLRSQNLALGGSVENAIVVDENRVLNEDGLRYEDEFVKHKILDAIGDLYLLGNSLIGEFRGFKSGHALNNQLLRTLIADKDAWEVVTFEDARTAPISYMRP

P. aeruginosa PAO1 [3] = assay: Post-antibiotic effect (PAE) in P. aeruginosa PAO1; details: PAO1, 4xMIC for 1 h, 37° C.
Method: Post-antibiotic effect of the paLpxC inhibitors on wild-type P. aeruginosa. […] The experimental data points are the mean values from triplicate, independent measurements, and the error bars represent the standard deviation from the mean.
After incubating the plates overnight at 37° C., CFUs were enumerated, and the PAE values were calculated using a standard method where the time for the bacteria to recover 1 log post drug washout compared to the control was determined (FIG. 17, Table 6).
Post-antibiotic Effect (PAE). PAEs were determined using P. aeruginosa PAO1. […] The compound was washed out by diluting the culture 1000-fold into fresh CAMH-II medium, and the regrowth of bacteria was monitored by taking 100 μL aliquots each hour and plating serial dilutions on Muller-Hinton agar plates.

[4] = 37° C., fluorescence competition

| Structure (SMILES) | MIC (P. aeruginosa PAO1 [1]) [µM] | MIC [2] [µM] | Ki (paLpxC; [4]) [pM] | tR (min) Fluorescence assay (paLpxC; 37° C.) | koff (paLpxC; read-out: Koff (s^−1)) [s⁻¹] | kon (paLpxC) [µM⁻¹ s⁻¹] | residence time fold longer than 1 (paLpxC; 37° C.) [fold] | PAE (h) 4x (P. aeruginosa PAO1 [3]) | MIC fold lower than that for PT810 (P. aeruginosa PAO1 [1]) [fold] | binding to paLpxC (Kon, Koff, tR, Ki) (paLpxC; [4]) | Kon (paLpxC; [4]) [M⁻¹ s⁻¹] | koff (paLpxC; [4]) [s⁻¹] | MIC (μM) (PAO1) (P. aeruginosa PAO1 [1]; wild-type P. aeruginosa PAO1) [µM] | MIC (μM) (paEP) ([2]; efflux-pump mutant ΔMexABCDXY) [µM] |
| --- | --- | --- | --- | --- | --- | --- | --- | --- | --- | --- | --- | --- | --- | --- |
| COc1ccc(-c2ccn(CCC(C)(C(=O)NO)S(C)(=O)=O)c(=O)c2)cc1 (racemic) [PT902, N-hydroxy-4-(4-(4-methoxyphenyl)-2-oxopyridin-1(2H)-yl)-2-methyl-2-(methylsulfonyl)butanamide] | 3.12 (≈ 1.23 µg/mL) | 0.8 (≈ 0.316 µg/mL) | – | – | – | – | – | – | – | – | – | – | – | – |
| CC(CCn1ccc(-c2ccc(CN3CCOCC3)cc2)cc1=O)(C(=O)NO)S(C)(=O)=O (racemic) [PT904, N-hydroxy-2-methyl-2-(methylsulfonyl)-4-(4-(4-(morpholinomethyl)phenyl)-2-oxopyridin-1(2H)-yl)butanamide] | 50 (≈ 23.2 µg/mL) | – | 96.8 ± 3 | 4.7 ± 0.2 min | 0.0035 ± 0.0001 | 36.4 ± 0.4 | – | – | – | – | – | – | – | – |
| CC(CCn1ccc(-c2ccc(-c3cn(CC4CCCCC4)nn3)cc2)cc1=O)(C(=O)NO)S(C)(=O)=O (racemic) [PT910, 4-(4-(4-(1-(cyclohexylmethyl)-1H-1,2,3-triazol-4-yl)phenyl)-2-oxopyridin-1(2H)-yl)-N-hydroxy-2-methyl-2-(methylsulfonyl)butanamide] | 50 (≈ 26.4 µg/mL) | 3.12 (≈ 1.65 µg/mL) | 5.5 ± 3.4 | 100.2 ± 18.5 min | 0.00017 ± 3e-05 | 31 ± 3 | – | – | – | – | – | – | – | – |
| CC1(Cn2cc(-c3ccc(-c4ccn(CCC(C)(C(=O)NO)S(C)(=O)=O)c(=O)c4)cc3)nn2)COC1 (racemic) [PT911, N-hydroxy-2-methyl-4-(4-(4-(1-((3-methyloxetan-3-yl)methyl)-1H-1,2,3-triazol-4-yl)phenyl)-2-oxopyridin-1(2H)-yl)-2-(methylsulfonyl)butanamide] | 25 (≈ 12.9 µg/mL) | 1.56 (≈ 0.804 µg/mL) | – | – | – | – | – | – | – | – | – | – | – | – |
| CC(CCn1ccc(-c2ccc(-c3cn(CCO)nn3)cc2)cc1=O)(C(=O)NO)S(C)(=O)=O (racemic) [PT912, N-hydroxy-4-(4-(4-(1-(2-hydroxyethyl)-1H-1,2,3-triazol-4-yl)phenyl)-2-oxopyridin-1(2H)-yl)-2-methyl-2-(methylsulfonyl)butanamide] | > 50 | > 12.5 | 3.7 ± 2.3 | 92.3 ± 11.2 min | 0.00018 ± 2e-05 | 59.6 ± 22.9 | – | – | – | – | – | – | – | – |
| CC(CCn1ccc(-c2ccc(-c3cn(CC45CC(C4)C5)nn3)cc2)cc1=O)(C(=O)NO)S(C)(=O)=O (racemic) [PT913, 4-(4-(4-(1-(bicyclo[1.1.1]pentan-1-ylmethyl)-1H-1,2,3-triazol-4-yl)phenyl)-2-oxopyridin-1(2H)-yl)-N-hydroxy-2-methyl-2-(methylsulfonyl)butanamide] | 12.5 (≈ 6.4 µg/mL) | 0.78 (≈ 0.399 µg/mL) | 2.1 ± 1.6 | 123.8 ± 37.2 min and 124.0 ± 37.2 min | 0.00015 ± 5e-05 | 85.2 ± 32.5 | ~3 | 4 h and 4.0 ± 0.2 h | – | – | – | – | – | – |
| CC(CCn1ccc(-c2ccc(-c3cn(Cc4ccccn4)nn3)cc2)cc1=O)(C(=O)NO)S(C)(=O)=O (racemic) [PT914, N-hydroxy-2-methyl-2-(methylsulfonyl)-4-(2-oxo-4-(4-(1-(pyridin-2-ylmethyl)-1H-1,2,3-triazol-4-yl)phenyl)pyridin-1(2H)-yl)butanamide] | 6.25 (≈ 3.27 µg/mL) | 0.2 (≈ 0.105 µg/mL) | 5.5 ± 3.4 | 118.5 ± 44.0 min | 0.00016 ± 6e-05 | 37.2 ± 23 | ~3 | – | 2 | – | – | – | – | – |
| CC(CCn1ccc(-c2ccc(-c3cn(Cc4ccncc4)nn3)cc2)cc1=O)(C(=O)NO)S(C)(=O)=O (racemic) [PT915, N-hydroxy-2-methyl-2-(methylsulfonyl)-4-(2-oxo-4-(4-(1-(pyridin-4-ylmethyl)-1H-1,2,3-triazol-4-yl)phenyl)pyridin-1(2H)-yl)butanamide] | 50 (≈ 26.1 µg/mL) | 6.25 (≈ 3.27 µg/mL) | – | – | – | – | – | – | – | – | – | – | – | – |
| CC(CCn1ccc(-c2ccc(-c3cn(Cc4ccncn4)nn3)cc2)cc1=O)(C(=O)NO)S(C)(=O)=O (racemic) [PT916, N-hydroxy-2-methyl-2-(methylsulfonyl)-4-(2-oxo-4-(4-(1-(pyrimidin-4-ylmethyl)-1H-1,2,3-triazol-4-yl)phenyl)pyridin-1(2H)-yl)butanamide] | 50 (≈ 26.2 µg/mL) | 3.12 (≈ 1.64 µg/mL) | 4.2 ± 2.2 | 102.7 ± 20.2 min | 0.00017 ± 3e-05 | 44.3 ± 14.5 | – | – | – | – | – | – | – | – |
| CC(CCn1ccc(-c2ccc(-c3cn(Cc4cccnc4)nn3)cc2)cc1=O)(C(=O)NO)S(C)(=O)=O (racemic) [PT917, N-hydroxy-2-methyl-2-(methylsulfonyl)-4-(2-oxo-4-(4-(1-(pyridin-3-ylmethyl)-1H-1,2,3-triazol-4-yl)phenyl)pyridin-1(2H)-yl)butanamide] | – | – | 3.2 ± 0.2 | 121.3 ± 4.4 min | 0.00014 ± 1e-05 | 42.8 ± 1.3 | ~3 | – | – | – | – | – | – | – |
| CC(CCn1ccc(-c2ccc(-c3cn(Cc4ccc([N+](=O)[O-])cc4)nn3)cc2)cc1=O)(C(=O)NO)S(C)(=O)=O (racemic) [PT918, N-hydroxy-2-methyl-2-(methylsulfonyl)-4-(4-(4-(1-(4-nitrobenzyl)-1H-1,2,3-triazol-4-yl)phenyl)-2-oxopyridin-1(2H)-yl)butanamide] | 6.25 (≈ 3.54 µg/mL) | 0.1 (≈ 0.0567 µg/mL) | 7 ± 1 | 78.5 ± 8.4 min | 0.00021 ± 2e-05 | 30.7 ± 0.1 | – | – | – | – | – | – | – | – |
| CC(CCn1ccc(-c2ccc(C(=O)NCc3ccccc3)cc2)cc1=O)(C(=O)NO)S(C)(=O)=O (racemic) [PT923, N-benzyl-4-(1-(4-(hydroxyamino)-3-methyl-3-(methylsulfonyl)-4-oxobutyl)-2-oxo-1,2-dihydropyridin-4-yl)benzamide] | 25 (≈ 12.4 µg/mL) | 3.12 (≈ 1.55 µg/mL) | 274 ± 76.6 | 8.0 ± 1.2 min | 0.0021 ± 0.0003 | 23.8 ± 18.8 | – | – | – | – | – | – | – | – |
| CC(CCn1ccc(-c2ccc(NC(=O)Cc3ccccc3)cc2)cc1=O)(C(=O)NO)S(C)(=O)=O (racemic) [PT924, N-hydroxy-2-methyl-2-(methylsulfonyl)-4-(2-oxo-4-(4-(2-phenylacetamido)phenyl)pyridin-1(2H)-yl)butanamide] | 50 (≈ 24.9 µg/mL) | 3.12 (≈ 1.55 µg/mL) | 95.4 ± 16.2 | 4.0 ± 1.0 min | 0.0043 ± 0.0009 | 44.8 ± 5.4 | – | – | – | – | – | – | – | – |
| C[C@@H](O)C(NC(=O)c1ccc(-c2cn(Cc3ccccc3)nn2)cc1)C(=O)NO (stereo partly drawn) [PT903, 4-(1-benzyl-1H-1,2,3-triazol-4-yl)-N-((3R)-3-hydroxy-1-(hydroxyamino)-1-oxobutan-2-yl)benzamide] | > 50 | > 12.5 | – | – | – | – | – | – | – | No binding was observed | – | – | – | – |
| CC(CCn1ccc(-c2ccc(N)cc2)cc1=O)(C(=O)NO)S(C)(=O)=O (centres unmarked) [PT919] | – | – | 4 ± 3 | 121.15 ± 30 min | – | – | – | – | – | – | 6.427e+07 ± 5.976e+07 | 0.000143 ± 0.00003 | 12.5 (≈ 4.74 µg/mL) | 0.78 (≈ 0.296 µg/mL) |
| COc1ccc(-c2ccc(CNC3(C(=O)NO)CCS(=O)(=O)CC3)cc2F)cc1 [PT921, 4-(((2-fluoro-4′-methoxy-[1,1′-biphenyl]-4-yl)methyl)amino)-N-hydroxytetrahydro-2H-thiopyran-4-carboxamide 1,1-dioxide] | 0.8 (≈ 0.338 µg/mL) | 0.1 (≈ 0.0422 µg/mL) | 14.4 ± 2.5 | 34.3 ± 1.0 min | 0.00049 ± 1e-05 | 34.5 ± 6.3 | – | – | – | – | – | – | – | – |
| CC(CCn1ccc(-c2ccc(-c3cnnn3Cc3ccccc3)cc2)cc1=O)(C(N)=O)S(C)(=O)=O (centres unmarked) [PT925, 4-(4-(4-(1-benzyl-1H-1,2,3-triazol-5-yl)phenyl)-2-oxopyridin-1(2H)-yl)-2-methyl-2-(methylsulfonyl)butanamide] | 50 (≈ 25.3 µg/mL) | 12.5 (≈ 6.32 µg/mL) | – | 9 min and 9.0 ± 0.9 min | – | – | – | – | – | – | – | – | – | – |
